Measured values reported in publication PMC8512853, “Synthesis, Bioactivity, Pharmacokinetic and Biomimetic Properties of Multi-Substituted Coumarin Derivatives” (Molecules, 2021).

Tests used:
[1] = ABTS radical scavenging assay; details: 6 min
Method: The ABTS radical cation scavenging assay is a decolorization assay frequently used as an antioxidant activity estimation protocol. […] The absorbance is measured at 734 nm and the antioxidant capacity is compared to a standard antioxidant solution, such as ascorbic acid.
For the evaluation of antioxidant activity, the scavenging capacities of all samples were measured via the ABTS assay, as previously described by Kontogiorgis et al. with some modifications. Briefly, an ethanolic standard ABTS solution (7 mM) was prepared by the addition of ABTS salt and potassium persulfate. […] Each sample was diluted in DMSO and tested in triplicate. The tested mixture contained 10–20 µL of sample and 990–980 µL of the ABTS solution, for a total volume of 1 ml. Blank samples contained equal amounts of DMSO instead of the coumarin analogues, and ascorbic acid was used as a reference sample for the final evaluation of the ABTS scavenging capacity. All mixtures were stored at room temperature to allow decolorization and measured after 6 min. The percentage reduction of the ABTS radical was evaluated according to the following Equation (3):(3) % Reduction=Control OD (mean)−Sample OD (mean)/Control OD (mean)×100

[2] = test system: HaCaT cells; test: DCF-DA assay (intracellular ROS after H2O2); type: cell-based, human; details: Homo sapiens, 100 μΜ, H2O2 treatment, 24 h, read-out: DCFDA Assay, % (100 μΜ)
Source text: In the setting of evaluating bioactive compounds in terms of antioxidant capacity in various cell lines, DCF-DA is the most widely used assay for the detection of intracellular H2O2 and oxidative stress. DCF-DA is cell-permeable and is hydrolyzed intracellularly to the DCFH carboxylate anion, which is retained in the cell.
DCFDA is a fluorescent dye that measures the activity of hydroxyl radicals, peroxyl radicals, and other reactive oxygen species (ROS) within the cell. The DCFDA analysis protocol is based on the diffusion of DCFDA into the cell. It is then deacetylated from cellular esterases to a non-fluorescent compound, which is later oxidized by ROS to 2’,7’ -dichlorofluoroscein (DCF). The produced compound (DCF) is fluorescent and is detected by fluorescence spectroscopy at 485/535 nm (excitation/emission).
For the experimental procedure a standard solution of DCF-DA (20mM) in DMSO was prepared which was stored in the dark (−20 °C) until use. In a 96-well plate, cells were cultured to a density of 3 × 10^4 cells/well.
The cells remained in the incubator (37 °C, 5% CO2) for 24 h, after which an appropriate amount of H2O2 (2 mM) was added and the dish was returned for incubation for the next 2 h. This was followed by the addition of the test substances (100μM) and incubation for 24 h. At the end of the treatment time, all wells were washed with PBS, and DCF-DA solution (working concentration: 10 μM) (in 200 μL of nutrient) was added and incubated for 40 min.
After incubation, the medium with the DCF-DA was removed and replaced with FBS-free DMEM. The measurement of the […] was made immediately after that in a plate reader at 495/530 nm (excitation/emission).
All samples were tested in triplicates, against a control (without effects), blank (without cells), and positive control (standard 100 μM Ascorbic acid solution was used).
The percentage of antioxidant capacity (%) was calculated according to the following Equation (6) evaluating the presence of ROS [42]:(6) % AI=( OD Sample 530 nm−Blank)−(OD Control 530 nm−Blank)/(OD Control 530 nm−Blank) × 100

[3] = MTT cell viability assay, HaCaT; type: cell-based, human; details: human, HaCaT cells, 100 μΜ, 24 h
Source text: The MTT assay (3- [4,5-dimethylthiazol-2-yl] -2,5 diphenyl tetrazole) is based on the conversion of MTT to formazan crystals by living cells, which determines mitochondrial activity. Since for most cell populations total mitochondrial activity is related to the number of viable cells, this assay is widely used to measure the in vitro cytotoxic effects of drugs on various cell lines or primary cells. The principle of the MTT assay is that for most viable cells the mitochondrial activity is stable, and therefore, an increase or decrease in the number of viable cells is linearly related to mitochondrial activity. The mitochondrial activity of the cells is reflected by the conversion of the MTT tetrazole salt to formazan crystals (bright purple), which can be solubilized (in this protocol with DMSO) for homogeneous measurement. Thus, any increase or decrease in the number of viable cells can be detected by measuring the formazan concentration reflected in the optical density (OD) measurement at 540 nm with a reference absorption of 720 nm.
All the compounds were tested for their cytotoxic activity against blank and control samples in the human epidermal keratinocyte line (HaCaT), at the concentration of 100 μΜ, and the results are presented in Table 4.
(§1) This protocol was used for the evaluation of cell viability and all the cell lines. It must be noted that this assay describes the count of cells that remain alive after the treatment. For the experimental procedure a standard solution of MTT 1mg/mL in PBS was prepared which after filtration ([…] filter (Millipore, Carrigtwohill, Ireland)) was stored in the dark (4–8 °C) until use. In a 96-well plate, HaCaT, A549 and A375 cells were seeded in a number of 30 × 10^4 cells/well for each evaluation series respectively. The cells were incubated (37 °C, 5% CO2) for 24 h, followed by the addition of the tested analogues (100 μM, diluted in DMEM) and another 24-h incubation. Next, appropriate amount of MTT was added in the tested wells and the plate returned to the incubator for the next 4 h for the formation of the formazan crystals. The formazan crystals were then redissolved by adding DMSO (100 μL) and stirring lightly for 40 min, after which the absorbance was measured in a plate reader at 540 nm with a reference absorbance of 720 nm.
(§2) All samples were tested in triplicate, against a control (only cells), blank (no cells), and positive control (100 μM standard silibinin solution was used as a “cell-killing” standard).

[4] = test system: A549 cells; test: MTT cytotoxicity assay, A549; type: cell-based, human; details: Homo sapiens; A549, 100 μΜ, 24 h; read-out: Cell Toxicity A549 % (100 μΜ)
Method: (§3) Furthermore, the coumarin compounds synthesized in this study were also evaluated for their cytotoxicity against A549 (adenocarcinomic human alveolar basal epithelial cells) and A375 (human melanoma) cell lines.
as §1, §2

[5] = test system: A375 cells; test: MTT cytotoxicity assay, A375; type: cell-based, human; details: Homo sapiens, A-375, 24 h, A375, 100 μΜ, read-out: Cell Toxicity A375 % (100 μΜ)
Method: as §3, §1, §2

[6] = Hydroxyl (HO•) free radical scavenging assay (competition with DMSO)
Source text: The hydroxyl (HO^•) free radical is considered as the most toxic and reactive radical among the ROS, leading to cellular or protein damage, membrane destruction, and even to cellular death when encountered in excess concentration. In this context, the evaluation of the hydroxyl radical scavenging activity of the coumarin analogues was essential. Hydroxyl radicals are mainly produced by the Haber–Weiss reaction in the presence of iron or copper ions. In this protocol, iron-EDTA solution, which catalyzes the autooxidation of ascorbic acid, was used as the hydroxyl radical generation system. In general, the hydroxyl radicals formed oxidize the DMSO to form formaldehyde. The reaction involves the initial interaction of DMSO with the hydroxyl radicals to give methyl radicals, with the final product being formaldehyde, which is determined by Nash method. The intensity of the yellow solution formed was measured at 412 nm against a reagent blank.
For the evaluation of hydroxyl radical scavenging ability, the protocol described by Kontogiorgis et al. was used. In short, each sample was tested in quadruplicate (A, B, C, D). For A and B, 10 μL of coumarin analogs diluted in DMSO (100 mM) were added; for C and D were the respective blanks. Standards (containing DMSO solution) and blanks were all prepared in a similar manner; to the latter an equal amount (10 µL) of solvent was added instead of the tested analogues. According to the protocol described by Klein et al., standard solutions of EDTA, FeCl3, ascorbic acid, and buffer solution (pH 7.4) were also added to each of the tested mixtures. All mixtures were incubated at 37 °C for 30 min, and then 1 mL of Nash solution and […] of CCl3COOH solution were added. After a 10min incubation at 60 °C to allow the formation of the yellow mixture, the absorbance was measured at […].
The results were calculated as performance percentages in relation to the respective standards and blanks according to the following Equation (4):(4) % Scavenging ability= Mean OD(A+B)−Mean OD(C+D)/Mean OD(A+B)

[7] = Inhibition of AAPH induced linoleic acid oxidation (lipid peroxidation); details: 100 μΜ
Source text: AAPH induced linoleic acid oxidation has been developed as a quick and reliable antioxidant activity assay. It is based on the inhibition of linoleic acid oxidation, initiated by the thermal free radical producer 2,2′-azobis(2-amidinopropane) dihydrochloride (AAPH), providing a measure of how efficiently antioxidants protect against lipid oxidation in vitro. Oxidation of exogenous linoleic acid by AAPH is followed by UV spectrophotometry at 234 nm in a highly diluted sample [38].
For the reference sample in a UV cuvette, 10 μL of the test sample (100 μM diluted in DMSO), 10 μL linoleic acid (LA) (16 mM), and buffer solution (pH 7.4) were added to a final volume of 1ml. For the measurement sample, in a UV cuvette, 10 μL of test sample, 50 μL AAPH (40 mM), 10 μL LA, and buffer solution were added to a final volume of 1 mL. Standard and blank samples were prepared in the same way using DMSO (solvent) instead of the tested coumarin analogues. The absorbance was measured after 2 min at 37 °C at 234 nm. Results were obtained via the following Equation (5):(5) %Inhibition=(Standard−Blank)−(Reference Sample−Measurement Sample)/(Standard−Blank) × 100

For `O=C1O[C@H]([C@@H](O)CO)C(O)=C1O` [Ascorbic acid, reference compound], the “ABTS^•+ % (100 μΜ)” value [1] was 99.1% and the inhibition at 100 µM [2] was 87%.
With `COc1cc(C2Oc3cc([C@H]4Oc5cc(O)cc(O)c5C(=O)[C@@H]4O)ccc3OC2CO)ccc1O` (some centres unmarked) [Silibinin, reference compound] the viability at 24 h, 100 μM [3] was 35.7%, the cytotoxicity at 100 µM [4] was 78.3% and the cytotoxicity at 100 µM [5] was 84.4%.
For `Cc1c(C)c2c(c(C)c1O)CCC(C)(C(=O)O)O2` (centres unmarked) [Trolox, reference compound], the “ABTS^•+ % (100 μΜ)” value [1] was 92.0%, the “HO^• % (100 μΜ) scavenging” value [6] was 85.0% and the “AAPH % inhibition (100 μΜ)” value [7] was 92%.
